Experimental data as given in patent publication US10750743B2, “Pyridazinone herbicides” (E.I. DU PONT DE NEMOURS AND COMPANY, priority 2015, dated 2020).

What was measured:
Type in all cases: in vivo
[1] = tested on: barnyardgrass (Echinochloa crus-galli); assay: Test A preemergence, directed soil spray, visual injury rating; conditions: 0 is no effect, 100 is complete control
Summary of the method: (§1)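 Injury ratings, 0 (no effect) to 100 (complete control), were scored visually versus untreated plants roughly 10 d after treatment under greenhouse conditions. Treatments used surfactant-containing solvent formulations, sprayed onto soil preemergence or onto one- to two-leaf seedlings (2-10 cm) postemergence, grown in a loam-sand mix.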

kochia (Kochia scoparia) [2] = assay: as above; conditions: 0 is no effect, 100 is complete control
Summary of the method: as §1

[3] = tested on: foxtail, giant (giant foxtail, Setaria faberii); assay: as above; conditions: 0 is no effect, 100 is complete control
Summary of the method: as §1

[4] = tested on: pigweed (Amaranthus retroflexus); assay: as above; conditions: 0 is no effect, 100 is complete control
Summary of the method: as §1

[5] = tested on: ragweed (common ragweed, Ambrosia elatior); assay: as above; conditions: 0 is no effect, 100 is complete control
Summary of the method: as §1

[6] = tested on: ryegrass, It. (Italian ryegrass, Lolium multiflorum); assay: as above; conditions: 0 is no effect, 100 is complete control
Summary of the method: as §1

[7] = tested on: ducksalad (Heteranthera limosa); assay: Test B flooded paddy test, visual rating; conditions: Flood, 250 g ai/ha, applied to paddy water, rated after 13 to 15 d
Summary of the method: (§2)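 Ratings use a 0-100 visual scale, where 100 is complete control, and compare treated plants with controls after 13 to 15 d of greenhouse growth. Compound went straight into paddy water kept 3 cm over the soil surface, applied to seedlings at the 2-leaf stage.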

[8] = tested on: barnyardgrass (Echinochloa crus-galli); assay: Test B flooded paddy test, visual rating; conditions: Flood, 250 g ai/ha, applied to paddy water, rated after 13 to 15 d
Summary of the method: as §2

rice (Oryza sativa) = assay: Test B flooded paddy test, visual rating; conditions: Flood, 250 g ai/ha, applied to paddy water, rated after 13 to 15 d
Summary of the method: as §2

[9] = tested on: sedge, umbrella (small-flower umbrella sedge, Cyperus difformis); assay: Test B flooded paddy test, visual rating; conditions: Flood, 250 g ai/ha, applied to paddy water, rated after 13 to 15 d
Summary of the method: as §2

[10] = tested on: galium (catchweed bedstraw, Galium aparine); assay: Test A postemergence application, visual injury rating; conditions: for Galium plant response rating: 0 to 100 scale, 0 no effect, 100 complete control
Summary of the method: as §1

[11] = tested on: barnyardgrass (Echinochloa crus-galli); assay: as above; conditions: 0 to 100 scale, 0 no effect, 100 complete control
Summary of the method: as §1

kochia (Kochia scoparia) [12] = assay: as above; conditions: for Kochia plant response rating: 0 to 100 scale, 0 no effect, 100 complete control
Summary of the method: as §1

[13] = tested on: foxtail, giant (giant foxtail, Setaria faberii); assay: as above; conditions: for Foxtail, Giant plant response rating: 0 to 100 scale, 0 no effect, 100 complete control
Summary of the method: as §1

[14] = tested on: pigweed (Amaranthus retroflexus); assay: as above; conditions: for Pigweed plant response rating: 0 to 100 scale, 0 no effect, 100 complete control
Summary of the method: as §1

corn (Zea mays) = assay: as above; conditions: for Corn plant response rating: 0 to 100 scale, 0 no effect, 100 complete control
Summary of the method: as §1

[15] = tested on: ragweed (common ragweed, Ambrosia elatior); assay: as above; conditions: for Ragweed plant response rating: 0 to 100 scale, 0 no effect, 100 complete control
Summary of the method: as §1

[16] = tested on: blackgrass (Alopecurus myosuroides); assay: as above; conditions: 0 to 100 scale, 0 no effect, 100 complete control
Summary of the method: as §1

[17] = tested on: wheat (Triticum aestivum); assay: as above; conditions: for Wheat plant response rating: 0 to 100 scale, 0 no effect, 100 complete control
Summary of the method: as §1

[18] = tested on: ryegrass, It. (Italian ryegrass, Lolium multiflorum); assay: as above; conditions: for Ryegrass, It. plant response rating: 0 to 100 scale, 0 no effect, 100 complete control
Summary of the method: as §1

[19] = 31 g ai/ha, 0 is no effect, 100 is complete control

For `Cc1nn(C)c(=O)c(-c2ccc(Cl)c3sccc23)c1OC(=O)c1ccccc1` [Compound 57], the “Plant response rating (0 to 100 scale), Barnyardgrass” value ([1]; 31 g ai/ha) was 0, the “Plant response rating (0 to 100 scale), Barnyardgrass” value ([1]; 125 g ai/ha) was 0 and the “Plant response rating (0 to 100 scale), Kochia” value (kochia (Kochia scoparia) [2]; 31 g ai/ha) was 50. The “Plant response rating (0 to 100 scale), Kochia” value (kochia (Kochia scoparia) [2]; 125 g ai/ha) was 0, the “Plant response rating (0 to 100 scale), Foxtail, Giant” value ([3]; 31 g ai/ha) was 0 and the “Plant response rating (0 to 100 scale), Foxtail, Giant” value ([3]; 125 g ai/ha) was 0. For the same compound, the “Plant response rating (0 to 100 scale), Pigweed” value ([4]; 31 g ai/ha) was 0, the “Plant response rating (0 to 100 scale), Pigweed” value ([4]; 125 g ai/ha) was 0 and the “Plant response rating (0 to 100 scale), Ragweed” value ([5]; 31 g ai/ha) was 0. The “Plant response rating (0 to 100 scale), Ragweed” value ([5]; 125 g ai/ha) was 0, the “Plant response rating (0 to 100 scale), Ryegrass, It.” value ([6]; 31 g ai/ha) was 0 and the “Plant response rating (0 to 100 scale), Ryegrass, It.” value ([6]; 125 g ai/ha) was 10. For the same compound, the “Ducksalad plant response rating (0 to 100 scale, 0 is no effect, 100 is complete control)” value [7] was 0, the “Barnyardgrass plant response rating (0 to 100 scale, 0 is no effect, 100 is complete control)” value [8] was 0 and the “Rice plant response rating (0 to 100 scale, 0 is no effect, 100 is complete control)” value (rice (Oryza sativa)) was 0. The “Sedge, Umbrella plant response rating (0 to 100 scale, 0 is no effect, 100 is complete control)” value [9] was 0, the “Galium plant response rating” value ([10]; 31 g ai/ha) was 0 and the “Galium plant response rating” value ([10]; 125 g ai/ha) was 0. The “Barnyardgrass plant response rating” value ([11]; 31 g ai/ha) was 0, the “Barnyardgrass plant response rating” value ([11]; 125 g ai/ha) was 0 and the “Kochia plant response rating” value (kochia (Kochia scoparia) [12]; 31 g ai/ha) was 0. The “Kochia plant response rating” value (kochia (Kochia scoparia) [12]; 125 g ai/ha) was 0, the “Foxtail, Giant plant response rating” value ([13]; 31 g ai/ha) was 0 and the “Foxtail, Giant plant response rating” value ([13]; 125 g ai/ha) was 0. The “Pigweed plant response rating” value ([14]; 31 g ai/ha) was 0, the “Pigweed plant response rating” value ([14]; 125 g ai/ha) was 0 and the “Corn plant response rating” value (corn (Zea mays); 31 g ai/ha) was 0. The “Corn plant response rating” value (corn (Zea mays); 125 g ai/ha) was 0, the “Ragweed plant response rating” value ([15]; 31 g ai/ha) was 0 and the “Ragweed plant response rating” value ([15]; 125 g ai/ha) was 0. The “Blackgrass plant response rating” value ([16]; 31 g ai/ha) was 0, the “Blackgrass plant response rating” value ([16]; 125 g ai/ha) was 0 and the “Wheat plant response rating” value ([17]; 31 g ai/ha) was 0. The “Wheat plant response rating” value ([17]; 125 g ai/ha) was 0, the “Ryegrass, It. plant response rating” value ([18]; 31 g ai/ha) was 0 and the “Ryegrass, It. plant response rating” value ([18]; 125 g ai/ha) was 0.
`COC(=O)Oc1c(C)nn(C)c(=O)c1-c1ccc(Cl)c2sccc12` [Compound 59] was tested, and the “Plant response rating (0 to 100 scale), Barnyardgrass” value ([1]; 31 g ai/ha) was 0, the “Plant response rating (0 to 100 scale), Barnyardgrass” value ([1]; 125 g ai/ha) was 0 and the “Plant response rating (0 to 100 scale), Kochia” value (kochia (Kochia scoparia) [2]; 31 g ai/ha) was 10. For the same compound, the “Plant response rating (0 to 100 scale), Kochia” value (kochia (Kochia scoparia) [2]; 125 g ai/ha) was 20, the “Plant response rating (0 to 100 scale), Foxtail, Giant” value ([3]; 31 g ai/ha) was 0 and the “Plant response rating (0 to 100 scale), Foxtail, Giant” value ([3]; 125 g ai/ha) was 0. The “Plant response rating (0 to 100 scale), Pigweed” value ([4]; 31 g ai/ha) was 0, the “Plant response rating (0 to 100 scale), Pigweed” value ([4]; 125 g ai/ha) was 0 and the “Plant response rating (0 to 100 scale), Ragweed” value ([5]; 31 g ai/ha) was 50. For the same compound, the “Plant response rating (0 to 100 scale), Ragweed” value ([5]; 125 g ai/ha) was 30, the “Plant response rating (0 to 100 scale), Ryegrass, It.” value ([6]; 31 g ai/ha) was 10 and the “Plant response rating (0 to 100 scale), Ryegrass, It.” value ([6]; 125 g ai/ha) was 10. The “Ducksalad plant response rating (0 to 100 scale, 0 is no effect, 100 is complete control)” value [7] was 0, the “Barnyardgrass plant response rating (0 to 100 scale, 0 is no effect, 100 is complete control)” value [8] was 0 and the “Rice plant response rating (0 to 100 scale, 0 is no effect, 100 is complete control)” value (rice (Oryza sativa)) was 20. The “Sedge, Umbrella plant response rating (0 to 100 scale, 0 is no effect, 100 is complete control)” value [9] was 0, the “Plant response rating (0 to 100 scale), Galium” value [10, 19] was 20 and the “Galium plant response rating” value ([10]; 125 g ai/ha) was 80. The “Barnyardgrass plant response rating” value ([11]; 31 g ai/ha) was 0, the “Barnyardgrass plant response rating” value ([11]; 125 g ai/ha) was 0 and the “Plant response rating (0 to 100 scale), Kochia” value (kochia (Kochia scoparia) [12]; [19]) was 0. The “Kochia plant response rating” value (kochia (Kochia scoparia) [12]; 125 g ai/ha) was 60, the “Plant response rating (0 to 100 scale), Foxtail, Giant” value [13, 19] was 0 and the “Foxtail, Giant plant response rating” value ([13]; 125 g ai/ha) was 0. For the same compound, the “Plant response rating (0 to 100 scale), Pigweed” value [14, 19] was 0, the “Pigweed plant response rating” value ([14]; 125 g ai/ha) was 30 and the “Plant response rating (0 to 100 scale), Corn” value (corn (Zea mays); [19]) was 0. The “Corn plant response rating” value (corn (Zea mays); 125 g ai/ha) was 20, the “Plant response rating (0 to 100 scale), Ragweed” value [15, 19] was 0 and the “Ragweed plant response rating” value ([15]; 125 g ai/ha) was 0. For the same compound, the “Blackgrass plant response rating” value ([16]; 31 g ai/ha) was 0, the “Blackgrass plant response rating” value ([16]; 125 g ai/ha) was 0 and the “Plant response rating (0 to 100 scale), Wheat” value [17, 19] was 0. For the same compound, the “Wheat plant response rating” value ([17]; 125 g ai/ha) was 0, the “Plant response rating (0 to 100 scale), Ryegrass, It.” value [18, 19] was 0 and the “Ryegrass, It. plant response rating” value ([18]; 125 g ai/ha) was 10.
